Measured values as given in patent publication US20260184708A1, “PYRIDAZINONES AND METHODS OF USE THEREOF” (GFB (ABC), LLC, priority 2017, published 2026).

What was measured:
Type in all cases: cell-based
TRPC5 [1] = molecular target: T1, TRPC5 (Homo sapiens, UniProt Q9UL62); assay: TRPC5 automated patch clamp assay (Qpatch), current block after rosiglitazone stimulation; details: Table 6; HEK293 cells overexpressing TRPC5; read-out: TRPC5-QPatch IC50
T1 construct: expressed in transfected cells; host or cells: HEK 293
T1 sequence (Q9UL62 1-973): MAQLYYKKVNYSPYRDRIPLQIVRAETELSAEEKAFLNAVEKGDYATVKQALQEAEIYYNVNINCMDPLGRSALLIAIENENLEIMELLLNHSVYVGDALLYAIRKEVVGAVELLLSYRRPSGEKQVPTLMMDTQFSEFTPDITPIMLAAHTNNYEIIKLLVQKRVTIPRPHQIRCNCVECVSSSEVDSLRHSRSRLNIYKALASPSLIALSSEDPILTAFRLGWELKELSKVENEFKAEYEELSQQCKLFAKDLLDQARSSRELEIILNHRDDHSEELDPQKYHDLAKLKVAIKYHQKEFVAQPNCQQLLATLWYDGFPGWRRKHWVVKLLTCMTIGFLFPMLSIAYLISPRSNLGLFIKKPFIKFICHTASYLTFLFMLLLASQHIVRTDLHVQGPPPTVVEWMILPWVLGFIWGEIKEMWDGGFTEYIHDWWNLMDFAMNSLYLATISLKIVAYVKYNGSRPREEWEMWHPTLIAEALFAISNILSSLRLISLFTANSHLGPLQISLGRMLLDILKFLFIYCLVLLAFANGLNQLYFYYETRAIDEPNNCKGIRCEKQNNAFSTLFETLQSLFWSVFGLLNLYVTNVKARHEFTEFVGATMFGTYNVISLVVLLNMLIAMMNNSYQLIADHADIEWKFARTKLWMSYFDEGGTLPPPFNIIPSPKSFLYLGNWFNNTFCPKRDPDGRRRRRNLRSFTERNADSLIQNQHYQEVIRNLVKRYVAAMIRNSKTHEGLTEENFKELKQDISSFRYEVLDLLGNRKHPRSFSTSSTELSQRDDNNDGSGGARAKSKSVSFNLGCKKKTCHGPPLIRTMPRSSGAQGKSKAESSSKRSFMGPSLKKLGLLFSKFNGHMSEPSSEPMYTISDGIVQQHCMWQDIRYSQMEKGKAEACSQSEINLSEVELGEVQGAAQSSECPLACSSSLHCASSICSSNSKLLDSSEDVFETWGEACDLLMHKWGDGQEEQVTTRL
In short: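 HEK 293 cells expressing human TRPC5, whole-cell QPatch recording; 1 μM buffered free internal Ca2+, external pH 7.4. Ramps −100 to +100 mV over 300 ms every 10 s from −60 mV holding; channel activated by Rosiglitazone (30 uM) after ≥60 s control. IC50 from Hill fit.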

TRPC5 [2] = molecular target: T1, TRPC5; assay: TRPC5 fluorescence assay, membrane potential dye, flexstation (FLEX); details: Table 6; HEK293 cells overexpressing TRPC5
Experimental: HEK 293 cells expressing human TRPC5 cells were trypsinised, counted and seeded in black, clear-bottomed 96-well plates at a density of 50,000 cells per well and incubated overnight. Next day, the cells were loaded with membrane potential dye. Dye solution was made up according to the manufacturer's instructions in HEPES buffered Hank's balanced salt solution (HBSS). Dye solution (10 μL) was added to the wells and incubated at 37° C. for 1 hour. The test compounds and standard inhibitors were added to the wells and incubated at room temperature for 10 minutes. The plates were then placed in the flexstation and fluorescence monitored every 1.52 seconds. After 20 seconds, 10 μL of the appropriate standard agonist was added and the fluorescence monitored for 2 minutes at ex/emm: 530 nm/565 nm.

TRPC5 [3] = molecular target: T1, TRPC5; assay: TRPC5 automated electrophysiology (Syncropatch - Spatch format); details: Table 6; HEK293 cells overexpressing TRPC5
Experimental: The automated electrophysiological assay was carried out at room temperature. HEK-TRPC5 cells were cultured according to our standard operating procedures. Internal and external physiological solutions were freshly prepared prior to the assay. The free internal Ca2+ concentration was buffered to 1 μM according to the WCabuf software using 10 mMHEDTA. To monitor the ion currents, a voltage ramp from −100 mV to +80 mV, over 250 ms, was applied every 15 seconds, from a holding potential of −60 mV. To stabilize the inward and outward currents the voltage was kept steady at −100 mV and +80 mV for 20 ms. After recording for a minimum of 60 seconds control period, the activator (at 10, 15, 20 or 30 μM) was applied twice, before increasing concentrations of test compound (or vehicle) were applied to the cell. This was followed by a saturating concentration of the specific blocker ML 204 (100 μM). Graphs were plotted using the maximum outward current values obtained at +80 mV during the patch-clamp recordings. Data were normalized using the SyncroPatch384 equation Inorm=1−((Iconc−IFB)/(IRef−IFB)), where Iconc is the current amplitude at each concentration of agonist, IRef is the control current amplitude and IFB is the current in the presence of the saturating blocker ML204. Graphs were constrained between the maximum and minimum values. The series resistance (<15 MΩ) and quality of seals (>100 MΩ) were continuously monitored during the experiments. Data was analyzed using the Nanion Data Control384 software. EC/IC50 values were calculated using a least squares regression algorithm (Hill equation).

Compound	IC50 (TRPC5 [1])	IC50 (TRPC5 [2])	IC50 (TRPC5 [3])
O=c1[nH]ncc(N2CCc3c(ncn3Cc3cccnc3OC(F)(F)F)C2)c1Cl	0.01 to 1000 nM	0.01 to 1000 nM	–
O=c1[nH]ncc(N2CCc3ncn(Cc4ccc(C(F)(F)F)cc4)c3C2)c1Cl	10000 to 500000 nM	1000 to 5000 nM	–
O=c1[nH]ncc(N2CCc3c(ncn3-c3cccc(C(F)(F)F)c3)C2)c1Cl	1000 to 5000 nM	0.01 to 1000 nM	–
O=c1[nH]ncc(N2CCc3c(ncn3Cc3cccnc3C(F)(F)F)C2)c1Cl	1000 to 5000 nM	1000 to 5000 nM	–
O=c1[nH]ncc(N2CCc3c(ncn3Cc3ccccc3C(F)(F)F)C2)c1C1CC1	5000 to 10000 nM	5000 to 10000 nM	–
O=c1[nH]ncc(N2CCc3nn(-c4ccccc4C(F)(F)F)cc3C2)c1Cl	10000 to 500000 nM	0.01 to 1000 nM	–
O=c1[nH]ncc(N2CCc3c(ncn3Cc3cnccc3C(F)(F)F)C2)c1Cl	1000 to 5000 nM	0.01 to 1000 nM	–
O=c1[nH]ncc(N2CCc3c(ncn3Cc3ccc(F)nc3C(F)(F)F)C2)c1Cl	0.01 to 1000 nM	1000 to 5000 nM	–
O=c1[nH]ncc(N2CCc3c(ncn3Cc3ncccc3C(F)(F)F)C2)c1Cl	1000 to 5000 nM	0.01 to 1000 nM	–
O=c1[nH]ncc(N2CCc3c(ncn3Cc3ccncc3C(F)(F)F)C2)c1Cl	1000 to 5000 nM	0.01 to 1000 nM	–
CCc1ncccc1Cn1nnc2c1CCN(c1cn[nH]c(=O)c1Cl)C2	1000 to 5000 nM	0.01 to 1000 nM	–
O=c1[nH]ncc(N2CCc3c(nnn3Cc3ccc(F)cc3C(F)(F)F)C2)c1Cl	0.01 to 1000 nM	0.01 to 1000 nM	–
O=c1[nH]ncc(N2CCc3c(nnn3Cc3ccccc3C(F)F)C2)c1Cl	0.01 to 1000 nM	0.01 to 1000 nM	–
O=c1[nH]ncc(N2CCc3c(nnn3C3CCCCC3)C2)c1Cl	5000 to 10000 nM	10000 to 500000 nM	–
N#Cc1c(N2CCc3c(nnn3Cc3ccccc3C(F)F)C2)cn[nH]c1=O	1000 to 5000 nM	10000 to 500000 nM	–
N#Cc1c(N2CCc3c(nnn3Cc3ccc(F)cc3C(F)(F)F)C2)cn[nH]c1=O	1000 to 5000 nM	10000 to 500000 nM	–
N#Cc1cc(F)ccc1Cn1nnc2c1CCN(c1cn[nH]c(=O)c1Cl)C2	–	–	5000 to 10000 nM
O=c1[nH]ncc(Cl)c1N1CCc2c(nc(C3CC3)n2Cc2ccccc2C(F)(F)F)C1	–	–	10000 to 500000 nM
O=c1[nH]ncc(N2CCc3c(ncn3Cc3ccccc3C(F)(F)F)C2)c1Br [drawing 838]	1000 to 5000 nM	0.01 to 1000 nM	–
N#Cc1ccccc1-n1cnc2c1CN(c1cn[nH]c(=O)c1C#N)CC2 [drawing 841]	1000 to 5000 nM	0.01 to 1000 nM	–
O=c1[nH]ncc(N2CCc3ncn(-c4ccccc4C(F)(F)F)c3C2)c1Cl [drawing 847]	5000 to 10000 nM	10000 to 500000 nM	–
O=c1[nH]ncc(N2CCc3c(nnn3Cc3ccccc3C(F)(F)F)C2)c1Cl [drawing 859]	0.01 to 1000 nM	0.01 to 1000 nM	–
O=c1[nH]ncc(N2CCc3c(cnn3Cc3ccc(F)cc3C(F)(F)F)C2)c1Cl [drawing 864]	0.01 to 1000 nM	0.01 to 1000 nM	–
O=c1[nH]ncc(N2CCc3c(ncn3-c3ccccc3C(F)(F)F)C2)c1Cl [drawing 871]	0.01 to 1000 nM	0.01 to 1000 nM	–
N#Cc1c(N2CCc3c(ncn3Cc3ccccc3C(F)(F)F)C2)cn[nH]c1=O [drawing 873]	0.01 to 1000 nM	0.01 to 1000 nM	–
O=c1[nH]ncc(N2CCc3c(ncn3Cc3ccccc3)C2)c1Cl [drawing 880]	1000 to 5000 nM	0.01 to 1000 nM	–
CCc1ncccc1Cn1nnc2c1CCN(c1cn[nH]c(=O)c1C#N)C2 [drawing 918]	–	–	1000 to 5000 nM

The next lines start with the values.

IC50 (TRPC5 [1])	IC50 (TRPC5 [2])	IC50 (TRPC5 [3])	Compound
1000 to 5000 nM	10000 to 500000 nM	–	Cc1ccccc1-n1cnc2c1CCN(c1cn[nH]c(=O)c1Cl)C2
1000 to 5000 nM	1000 to 5000 nM	–	Cc1ncccc1Cn1cnc2c1CCN(c1cn[nH]c(=O)c1Cl)C2
10000 to 500000 nM	10000 to 500000 nM	–	O=c1[nH]ncc(N2CCc3c(ncn3Cc3ccc(C(F)(F)F)nc3)C2)c1Cl
0.01 to 1000 nM	0.01 to 1000 nM	–	O=c1[nH]ncc(N2CCc3c(cnn3Cc3ccccc3C(F)(F)F)C2)c1Cl
10000 to 500000 nM	1000 to 5000 nM	–	Cc1ccccc1-n1cc2c(n1)CCN(c1cn[nH]c(=O)c1Cl)C2
10000 to 500000 nM	10000 to 500000 nM	–	O=c1[nH]ncc(N2CCc3c(ncn3Cc3ccc(C(F)(F)F)cc3)C2)c1C1CC1
0.01 to 1000 nM	0.01 to 1000 nM	–	Cc1ccccc1-n1ncc2c1CCN(c1cn[nH]c(=O)c1Cl)C2
0.01 to 1000 nM	0.01 to 1000 nM	–	CCc1ncccc1Cn1cnc2c1CCN(c1cn[nH]c(=O)c1Cl)C2
1000 to 5000 nM	0.01 to 1000 nM	–	O=c1[nH]ncc(N2CCc3c(cnn3-c3ccccc3OC(F)(F)F)C2)c1Cl
1000 to 5000 nM	0.01 to 1000 nM	–	CCc1cccnc1Cn1cnc2c1CCN(c1cn[nH]c(=O)c1Cl)C2
5000 to 10000 nM	0.01 to 1000 nM	–	CC[C@@H](c1cncc(F)c1)n1cnc2c1CCN(c1cn[nH]c(=O)c1Cl)C2
0.01 to 1000 nM	0.01 to 1000 nM	–	Cc1nc2c(n1Cc1ccccc1C(F)(F)F)CCN(c1cn[nH]c(=O)c1Cl)C2
5000 to 10000 nM	10000 to 500000 nM	–	O=c1[nH]ncc(N2CCc3c(ncn3C3CCCCC3)C2)c1Cl
1000 to 5000 nM	0.01 to 1000 nM	–	O=c1[nH]ncc(N2CCc3c(nnn3Cc3ccccc3C(F)(F)F)C2)c1Br
1000 to 5000 nM	0.01 to 1000 nM	–	N#Cc1c(N2CCc3c(ncn3Cc3ccccc3C(F)F)C2)cn[nH]c1=O
–	–	5000 to 10000 nM	O=c1[nH]ncc(N2CCc3c(nnn3Cc3cccnc3C(F)F)C2)c1Cl
–	–	10000 to 500000 nM	C[C@H]1Cc2c(nnn2Cc2ccccc2C(F)F)CN1c1cn[nH]c(=O)c1Cl
–	–	1000 to 5000 nM	COc1cccc(Cn2nnc3c2CCN(c2cn[nH]c(=O)c2Cl)C3)c1C
–	–	1000 to 5000 nM	CC[C@H](c1cncc(F)c1)n1cnc2c1CCN(c1cn[nH]c(=O)c1Cl)C2
–	–	0.01 to 1000 nM	CC1Cc2c(nnn2Cc2ccccc2C(F)F)CN1c1cn[nH]c(=O)c1Cl (stereo not shown)
0.01 to 1000 nM	0.01 to 1000 nM	–	Cc1ccccc1Cn1cnc2c1CCN(c1cn[nH]c(=O)c1Cl)C2 [drawing 840]
1000 to 5000 nM	0.01 to 1000 nM	–	C[C@H](c1ccccc1)n1cnc2c1CCN(c1cn[nH]c(=O)c1Cl)C2 [drawing 842]
0.01 to 1000 nM	0.01 to 1000 nM	–	O=c1[nH]ncc(N2CCc3c(ncn3Cc3ccc(F)cc3C(F)(F)F)C2)c1Cl [drawing 844]
0.01 to 1000 nM	0.01 to 1000 nM	–	O=c1[nH]ncc(N2CCc3c(ncn3Cc3ccccc3C(F)(F)F)C2)c1Cl [drawing 850]
0.01 to 1000 nM	0.01 to 1000 nM	–	O=c1[nH]ncc(N2CCc3c(ncn3Cc3ccccc3C(F)(F)F)C2)c1Br [drawing 862]
0.01 to 1000 nM	0.01 to 1000 nM	–	O=c1[nH]ncc(N2CCc3c(ncn3Cc3ccc(F)cc3C(F)F)C2)c1Cl [drawing 892]
5000 to 10000 nM	10000 to 500000 nM	–	CCc1ncccc1Cn1nnc2c1CCN(c1cn[nH]c(=O)c1C#N)C2 [drawing 895]
